How the values were obtained:
[1] = Sedative action: Irwin Test (passivity, ataxia); details: for Atax. (ataxia, alterations of coordination in locomotion), evaluated between 0 and 3 / Pas. (passivity, sedation, prostation), evaluation between 0 and 3 / Effect: toxic: rat, i.p.; for Atax. (ataxia, alterations of coordination in locomotion), evaluated between 0 and 3 / Pas. (passivity, sedation, prostation), evaluation between 0 and 3: 1, 2 and 3 hours after treatment
Experimental: Pas.: Passivity, sedation, prostation. Quantitative evaluation between 0 and 3. They were performed 1, 2 and 3 hours after the treatment.
Atax.: Ataxia, the alterations of coordination in locomotion were evaluated. They were evaluated between 0 and 3. They were performed 1, 2 and 3 hours after the treatment.
Sedative action: 1) Irwin Test

[2] = Sedative effect: potentiation of the sleep time induced by pentobarbital; details: for Potentiation of the sleep time induced by pentobarbital (in words): oral, example 5 up to 160 mg/kg, difenhidramine at 20 mg/kg; for Potentiation sleep time: sodium pentobarbital 35 mg/kg s.c. one hour later
Experimental: The study of the potentiation of the sleep time due to the pentobarbital was performed following the method described by L. E. Allen and cols. […] The products studied were administered orally. […] The sleep time was compared with a group of control animals, treated only with sodium pentobarbital.

death induced by 48/80 = test: "In vivo" antihistaminic activity: protection from death induced by compound 48/80 in the rat; details: for ED50: ip, 4 h, i.p., rat, 48/80 0.5 mg/kg i.v. after 60 minutes, survival four hours after injection, read-out: ED-50 (dose capable of protecting 50% of the animals from death induced by 48/80)
Experimental: The antihistaminic activity was studied by determining the protection in the face of the mortality used by the product 48/80 in the rat. This test was performed in accordance with the technique described by C. J. E. Niemegeers et cols. (Arch. int. Pharmacodyn., 234, 164-176 (1978). The products according to the present invention are administered intra-peritonially to rats. After 60 minutes the compound 48/80 is administered (0.5 mg/kg, i.v.).
The protective activity is defined as the survival of the rats four hours after the i.v. injection of 48/80.
The activity of the products was studied at several doses in order to determine the dose capable of protecting 50% of the animals (ED-50).
"In vivo" antihistaminic activity Protection from death induced by 48/80

Structure (SMILES)	Atax. (ataxia, alterations of coordination in locomotion), evaluated between 0 and 3 ([1]; 40 mg/kg)	Pas. (passivity, sedation, prostation), evaluation between 0 and 3 ([1]; 40 mg/kg)	ED50 (death induced by 48/80) [mg/kg]	Effect: toxic ([1]; 80 mg/kg)	Atax. (ataxia, alterations of coordination in locomotion), evaluated between 0 and 3 ([1]; 80 mg/kg)	Pas. (passivity, sedation, prostation), evaluation between 0 and 3 ([1]; 80 mg/kg)	also measured
CN(C)CCOC(c1ccccc1)c1ccccc1 [Difenhidramine, reference compound]	0.9	0	5.4	–	–	–	Potentiation of the sleep time induced by pentobarbital (in words) [2]: potentiates significantly the sleep time at the dose of 20 mg/kg
Brc1cnn(CCCCN2CCN(C(c3ccccc3)c3ccccc3)CC2)c1 [Example 1, 4-Bromo-1-[4-(4-diphenylmethyl-1-piperazinyl)butyl]pyrazole]	1.4	0.8	3.2	Toxic	–	–	Atax. (ataxia, alterations of coordination in locomotion), evaluated between 0 and 3 ([1]; 20 mg/kg): 1.2; Pas. (passivity, sedation, prostation), evaluation between 0 and 3 ([1]; 20 mg/kg): 0.8
Clc1cnn(CCCCN2CCN(C(c3ccccc3)c3ccccc3)CC2)c1 [Example 2, 4-Chloro-1-[4-(-4-diphenylmethyl-1-piperazinyl)butyl]pyrazole]	1.5	0.2	3	Tox.	0.4	0	–
Brc1cnn(CCCN2CCN(C(c3ccccc3)c3ccccc3)CC2)c1 [Example 3, 4-Bromo-1-[3-(4-diphenylmethyl-1-piperazinyl)propyl]pyrazole]	–	–	10	–	0.7	0	–
O=C(O)c1cnn(CCCCN2CCN(C(c3ccccc3)c3ccccc3)CC2)c1 [Example 4, 1-[4-(4-Diphenylmethyl-1-piperazinyl)butyl]-4-carboxy pyrazole]	–	–	0.62	–	1	0.9	Atax. (ataxia, alterations of coordination in locomotion), evaluated between 0 and 3 ([1]; 160 mg/kg): 1.6; Pas. (passivity, sedation, prostation), evaluation between 0 and 3 ([1]; 160 mg/kg): 1.2
Cc1cnn(CCCCN2CCN(C(c3ccccc3)c3ccccc3)CC2)c1 [Example 5, 1-4-[4-(-Diphenylmethyl-1-piperazinyl)butyl]-4-methyl pyrazole]	–	–	0.62	–	0.5	0.7	sedative action / side effects on the central nervous system (in words) ([1]; in words): less sedative action; Potentiation sleep time ([2]; 40 mg/kg p.o., N.S. (not significant)): 15%; Potentiation sleep time ([2]; 80 mg/kg p.o., N.S. (not significant)): 21%; Potentiation sleep time ([2]; 160 mg/kg p.o., * significant vs control (p < 0.05)): 33%; Potentiation of the sleep time induced by pentobarbital (in words) [2]: does not potentiate the sleep time induced by the pentobarbital except at the dose of 160 mg/kg; antihistaminic activity (in words) (death induced by 48/80; compared with difenhidramine): one of the most powerful of the products
c1ccc(C(c2ccccc2)N2CCN(CCCCn3ccnc3)CC2)cc1 [Example 6, 1-[4-(4-Diphenylmethyl-1-piperazinyl)butyl]imidazole]	–	–	2.5	–	0.3	1.3	–
c1ccc(C(c2ccccc2)N2CCN(CCCCn3cncn3)CC2)cc1 [Example 7, 1-[4-(4-Diphenylmethyl-1-piperazinyl)butyl]-1,2,4,-triazole]	–	–	0.6	Toxic	–	–	–
c1ccc(C(c2ccccc2)N2CCN(CCCCn3cccc3)CC2)cc1 [Example 8, 1-[4-(4-Diphenylmethyl-1-piperazinyl)butyl]pyrrole]	–	–	6.7	–	–	–	–
